Read-outs that look alike come from different tables or passages of the source.
Legend:
[1] = target: T1, Pyruvate decarboxylase from Saccharomyces cerevisiae (Saccharomyces cerevisiae, UniProt P06169); experiment: Inactivation of pyruvate decarboxylase (PDC); assay type: biochemical
T1 construct: made in house; host or cells: E. coli
T1 sequence (P06169 2-563 limits assumed): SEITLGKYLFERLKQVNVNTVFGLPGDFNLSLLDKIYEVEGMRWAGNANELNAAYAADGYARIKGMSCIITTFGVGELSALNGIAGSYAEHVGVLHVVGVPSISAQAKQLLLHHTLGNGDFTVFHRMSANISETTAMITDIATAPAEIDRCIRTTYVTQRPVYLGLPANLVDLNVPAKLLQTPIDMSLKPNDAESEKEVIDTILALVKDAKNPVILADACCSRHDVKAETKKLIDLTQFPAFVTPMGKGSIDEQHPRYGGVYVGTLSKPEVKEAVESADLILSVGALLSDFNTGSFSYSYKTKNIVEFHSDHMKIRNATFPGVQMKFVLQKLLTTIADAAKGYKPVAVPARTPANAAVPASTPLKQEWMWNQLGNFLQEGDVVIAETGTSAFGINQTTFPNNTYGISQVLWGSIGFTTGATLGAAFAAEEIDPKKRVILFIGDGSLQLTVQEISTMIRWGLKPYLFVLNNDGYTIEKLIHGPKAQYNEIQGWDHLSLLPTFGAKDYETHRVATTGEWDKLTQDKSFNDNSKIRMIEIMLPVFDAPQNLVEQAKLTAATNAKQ
Description: Pyruvate decarboxylase from Saccharomyces cerevisiae was overexpressed in E. coli (Baburina et al., 1994), then purified according to Farrenkopf & Jordan (1992). It was assayed spectrophotometrically by coupling to alcohol dehydrogenase (Holzer et al., 1960).

PDHc [2] = target: T2, PDHc (Escherichia coli, UniProt P0AFG8); experiment: Steady-state kinetics of PDHc, Km / [S]0.5 for pyruvate; assay type: biochemical; design: made in house; host or cells: E. coli JRG1342 (PDHc null), Ptac plasmid pGS523; details: 3-lip PDHc; 0.22 mM without reagent
Description: (§1) Activity and related measurements on PDHc. The overall enzymatic reaction of the PDH complex was assayed using a Varian DMS 300 spectrophotometer or the Cobas Bio (Roche Diagnostics, Somerville, N.J.) automated centrifugal analyzer, monitoring the pyruvate-dependent reduction of NAD^+ at 340 nm. The reaction medium contained in 1 mL (DMS 300) or 0.25 mL (Cobas-Bio) test volume: 0.1 M Tris-HCl, pH 8.0; 1 mM MgCl2; 2 mM sodium pyruvate; 2.5 mM NAD^+; 0.052-0.2 mM coenzyme A; 0.2 mM ThDP; and 2.6 mM DTT at 27° C. The reaction was initiated either by adding enzyme to a mixture of all other components, or by adding CoA.
The Michaelis-Menten constants (Km) for native PDHc and PDHc treated with 2-oxo-3-butynoic acid and 2-oxo-3-heptynoic acid were obtained by fitting steady-state rates at different pyruvate concentrations to the Hill equation and the logarithmic form of the Hill equation using the Delta Graph (Pro4) computer program.

PDHc [3] = target: T2, PDHc; experiment: Inactivation of 1-lip and 3-lip PDH complexes by 2-oxo-3-alkynoic acids (overall NADH assay); assay type: biochemical, E. coli; design: made in house; host or cells: E. coli JRG1342 (PDHc null) with Ptac plasmid pGS501 (1-lip) or pGS523 (3-lip); details: for protection of PDHc from inactivation by pyruvate: 5 mM pyruvate, 1 mM ThDP, 5 mM MgCl2; for protection of PDHc from inactivation by pyruvate / inactivation of PDHc in the absence of ThDP: 3-lip (heptynoic) or 1-lip (butynoic) PDHc; for kapp, slow phase of inactivation / At (residual activity): 1-lip PDHc
Excerpt: Bacterial strains and plasmids for PDHc. Derivatives of the PDHc null strain, E. coli JRG1342 contained Ptac expression plasmids encoding PDHc with E2 chains bearing three lipoyl domains (3-lip PDHc; pGS523, the wild type parental complex), or a single lipoyl domain in each E2 subunit (1-lip PDHc; pGS501), and variant 1-lip PDH complexes with mutations in the E1 gene leading to C259S (pGS457) and C259N (pGS596) substitutions (Machado et al., 1992; Machado, 1993).
Purification of PDHc. Cultures for purification of 1-lip and 3-lip PDH complexes were grown at 37° C. in LB medium containing glucose (0.2%) and ampicillin (50 μg/mL). The PDH complexes were induced by adding IPTG to 60 μM as described by Russell et al. (1992). Cells were disrupted by ultrasonic treatment after preincubation with lysozyme (0.6 mg/mL final concentration) for 15 min. The PDHc was sedimented by ultracentrifugation (100,000×g for 3 h) and further purified by chromatography on a
Sephacryl S-400 HR column. Fractions containing PDHc were pooled and treated with ammonium sulfate to 70% saturation. The enzyme was dissolved in buffer A (20 mM potassium phosphate, pH 7.8, 2 mM Na2 EDTA, 1 mM PMSF, and 1 mM benzamidine.HCl) then dialyzed against the same buffer. The PDH complexes were stored in buffer A at -20° C.
as §1
One unit of activity is defined as the amount of NADH produced (μmol) per min per mg protein. The activity of resolved E1 was measured after reconstitution with excess E2-E3 subcomplex using the NADH assay for PDHc activity.
Inactivation of 1-lip and 3-lip PDH complexes and resolved E1 component by 2-oxo-3-alkynoic acids. Intact 1-lip or 3-lip PDH complexes (0.050-0.1 mg) or resolved E1 component (0.05-0.09 mg) were incubated in the dark with 5 mM MgCl2, […] of 2-oxo-3-alkynoic acids in 20 mM KH2 PO4 buffer, pH 7.5 at room temperature in a total volume 0.5 mL. The initial activity (100%) was assayed prior to the addition of 2-oxo-3-alkynoic acids. Samples (50 μL) were withdrawn periodically and diluted into 1 mL of assay solution, containing all components necessary for assay of the overall activity. The activity of untreated enzyme was stable during the time of inactivation.

[4] = PDC, catalytic site, read-out: Ki,c

CCCC#CC(=O)C(=O)O [2-oxo-3-heptynoic acid, 2-Oxo-3-heptynoic acid]
inhibition / inactivation of PDC (in words) [1]: inhibit
saturation by inhibitor ([1]; PDC): yes
saturation by inhibitor ([1]; PDC (+50 mM pyruvamide)): yes
Ki ([1]; PDC (+50 mM pyruvamide), read-out: Ki,c): 59.7 µM
Ki ([1]; PDC (+50 mM pyruvamide), read-out: Ki,r): 382 µM
kinact ([1]; PDC (+50 mM pyruvamide), read-out: ki (converted)): 0.00523 s⁻¹
Ki [1, 4]: 447 µM
Ki ([1]; PDC, regulatory site, read-out: Ki,r): 921 µM
kinact ([1]; PDC, read-out: ki (converted)): 0.01 s⁻¹
kinact/KI ([1]; read-out: kc/Ki,c, PDC): 22.5 M⁻¹ s⁻¹
kinact/KI ([1]; read-out: kc/Ki,c, PDC (+50 mM pyruvamide)): 87.7 M⁻¹ s⁻¹
[S]0.5 for pyruvate in the presence of / after treatment with inhibitor (PDHc [2]): 0.234 ± 0.025 mM
Ki (PDHc [3]): 2850 µM
protection of PDHc from inactivation by pyruvate (PDHc [3]): failed to protect
inactivation of PDHc in the absence of ThDP (PDHc [3]): still inactivated to the same extent, but at a slower rate
protection from inactivation by DTT (PDHc [3]; 3-lip PDHc, 5 mM DTT): partial protection
kinact/KI (PDHc [3]; pH 7.5, read-out: ki/Ki PDHc): 2.83 M⁻¹ s⁻¹
reactivation of inactivated 3-lip PDHc by hydroxylamine (PDHc [3]; prolonged incubation): failure to reactivate

C#CC(=O)C(=O)O [2-oxo-3-butynoic acid, 2-Oxo-3-butynoic acid]
inhibition / inactivation of PDC (in words) [1]: irreversibly inactivates
saturation by inhibitor ([1]; PDC): no
Ki [1, 4]: 2110 µM
Ki ([1]; PDC, read-out: Ki): 1100 µM
kinact ([1]; PDC, read-out: first order rate constant of inactivation (ki) (converted)): 0.0009 s⁻¹
kinact ([1]; PDC, read-out: ki (converted)): 0.00141 s⁻¹
kinact/KI ([1]; read-out: kc/Ki,c, PDC): 0.667 M⁻¹ s⁻¹
kinact/KI ([1]; read-out: ki/Ki, PDC): 0.817 M⁻¹ s⁻¹
[S]0.5 for pyruvate in the presence of / after treatment with inhibitor (PDHc [2]): 0.262 ± 0.069 mM
Ki (PDHc [3]): 7.9 µM
inhibition / inactivation of PDHc (in words) (PDHc [3]): irreversibly inactivates
k for inactivation of PDHc (PDHc [3]; 0.11 mM inhibitor): 0.69 min⁻¹
protection of PDHc from inactivation by pyruvate (PDHc [3]): partially protected
kapp, slow phase of inactivation (PDHc [3]; 0.1 mM inhibitor): 0.062 min⁻¹
kapp, slow phase of inactivation (PDHc [3]; 0.5 mM inhibitor): 0.053 min⁻¹
kapp, slow phase of inactivation (PDHc [3]; 1.0 mM inhibitor): 0.056 min⁻¹
At (residual activity) (PDHc [3]; absence of pyruvate): 20%
At (residual activity) (PDHc [3]; presence of 5 mM pyruvate): 60%
inactivation of PDHc in the absence of ThDP (PDHc [3]): partial inactivation
extent of inactivation (PDHc [3]; 3-lip PDHc): 99.62%
restoration of activity after dilution (PDHc [3]; 3-lip PDHc, 20-fold dilution, 50 min incubation in overall reaction mixture): no restoration of activity
PDHc activity at new plateau, of original activity (PDHc [3]; after a fresh portion of inhibitor was added): 6-8%
PDHc activity at plateau (PDHc [3]; first portion of inhibitor, residual activity): about 30%
kinact/KI (PDHc [3]; pH 7.5, second-order rate constant for inactivation, read-out: ki/Ki PDHc (converted)): 1730 M⁻¹ s⁻¹
Ki (PDHc [3]; read-out: Ki PDHc, PDHc (1-lip PDHc)): 7.9 µM

— patent publication US6204220A, “Substituted 2-oxo-3-alkynoic acids and methods of use thereof” (Rutgers, The State University of New Jersey, priority 1999, dated 2001)
